Assay results taken from US20240158446A1, “CYCLIC COMPOUND HAVING SELECTIVE INHIBITORY ACTION ON KRAS OVER HRAS AND NRAS” (CHUGAI SEIYAKU KABUSHIKI KAISHA, priority 2021, published 2024).
Read-outs that look alike come from different tables or passages of the source. *1 amine or outer side, *2 acyl side, *3 side chain or, on linkers, in order; H or OH if unused. Where a SMILES comes first, the peptide text is derived from it. Bridges are numbered along the chain shown (N, C = ends). [ ]: non-standard residue; d: D form. The star is where a group is joined. hPhe(3-Cl-4-CF3) = N[C@@H](CCc1ccc(C(F)(F)F)c(Cl)c1)C(=O)O; NPrPhe(4-CF3) = CCCN[C@@H](Cc1ccc(C(F)(F)F)cc1)C(=O)O; X16 = CCCN([C@@H](Cc1ccc(OC)cc1)C(=O)[*:2])[*:1]; Piperazinyl(4-(3-oxetanyl)) = C1OCC1N1CCN(*)CC1; Pro(4-spirocPr) = O=C(O)[C@@H]1CC2(CC2)CN1; NMeGly(cPent) = CN[C@H](C(=O)O)C1CCCC1; Pro(4,4-F2) = O=C(O)[C@@H]1CC(F)(F)CN1; Hyp = O=C(O)[C@@H]1C[C@@H](O)CN1; NMeD = CN[C@@H](CC(=O)O)C(=O)O; NMeL = CN[C@@H](CC(C)C)C(=O)O; Morpholide = C1CN(*)CCO1; NMeA = CN[C@@H](C)C(=O)O; Ac5c = NC1(C(=O)O)CCCC1; Aze = O=C(O)[C@@H]1CCN1; Ac4c = NC1(C(=O)O)CCC1; NEtG = CCNCC(=O)O; Sar = CNCC(=O)O

Columns and labels:
[1] = molecular target: GDP-bound KRAS wild-type protein (Homo sapiens, UniProt P01116); experiment: Binding to KRAS by surface plasmon resonance (SPR), Single Cycle Kinetics; details: GDP-bound KRAS wild-type protein, read-out: KRAS KD
Chain of GDP-bound KRAS wild-type protein (P01116 whole entry): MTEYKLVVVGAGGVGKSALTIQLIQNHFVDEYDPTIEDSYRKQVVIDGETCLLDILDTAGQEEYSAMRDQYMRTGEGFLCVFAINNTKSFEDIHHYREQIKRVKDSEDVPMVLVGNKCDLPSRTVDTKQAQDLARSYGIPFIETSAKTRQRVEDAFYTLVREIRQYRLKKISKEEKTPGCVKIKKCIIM

[2] = molecular target: GDP-bound NRAS wild-type protein (Homo sapiens, UniProt P01111); experiment: Binding to NRAS by surface plasmon resonance (SPR), Single Cycle Kinetics
Chain of GDP-bound NRAS wild-type protein (P01111 whole entry): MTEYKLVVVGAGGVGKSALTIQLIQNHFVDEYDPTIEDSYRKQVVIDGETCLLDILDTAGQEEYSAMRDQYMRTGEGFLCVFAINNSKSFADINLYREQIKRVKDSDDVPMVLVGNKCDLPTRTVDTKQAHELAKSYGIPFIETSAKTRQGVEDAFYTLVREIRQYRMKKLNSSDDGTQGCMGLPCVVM

[3] = molecular target: GDP-bound HRAS wild-type protein (Homo sapiens, UniProt P01112); experiment: Binding to HRAS by surface plasmon resonance (SPR), Single Cycle Kinetics
Chain of GDP-bound HRAS wild-type protein (P01112 whole entry): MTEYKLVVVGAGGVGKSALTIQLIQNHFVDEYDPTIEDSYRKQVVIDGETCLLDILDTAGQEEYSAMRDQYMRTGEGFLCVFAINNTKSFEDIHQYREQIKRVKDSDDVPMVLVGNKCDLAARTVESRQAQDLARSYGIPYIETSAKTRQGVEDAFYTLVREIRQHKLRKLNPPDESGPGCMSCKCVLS

[4] = SPR Single Cycle Kinetics, 1:1 binding model
[5] = SPR, GDP-bound NRAS wild-type protein vs GDP-bound KRAS wild-type protein
[6] = SPR, GDP-bound HRAS wild-type protein vs GDP-bound KRAS wild-type protein

Row | Kd [1, 4] | Kd ([1]; SPR, Single Cycle Kinetics) | Compound | NRAS/KRAS (ratio of KD value for NRAS to KD value for KRAS) [2, 5] | HRAS/KRAS (ratio of KD value for HRAS to KD value for KRAS) [3, 6] | NRAS/KRAS (ratio of KD value with respect to GDP-bound NRAS wild-type protein to KD value with respect to KRAS) ([2]; SPR KD ratio NRAS/KRAS, class symbols) | HRAS/KRAS (ratio of KD value with respect to GDP-bound HRAS wild-type protein to KD value with respect to KRAS) ([3]; SPR KD ratio HRAS/KRAS, class symbols) | NRAS/KRAS (ratio of KD value with respect to NRAS to KD value with respect to KRAS) [2, 5] | HRAS/KRAS (ratio of KD value with respect to HRAS to KD value with respect to KRAS) [3, 6]
1 | 0.66 nM |  | CCCN1C(=O)[C@@H]2CCN2C(=O)[C@H](C)N(C)C(=O)[C@H]([C@@H](C)CC)NC(=O)[C@H](CC(C)C)N(C)C(=O)C[C@@H](C(=O)N2CCOCC2)N(C)C(=O)[C@H](C2CCCC2)N(C)C(=O)C2(CCCC2)NC(=O)[C@@H]2CCCN2C(=O)[C@H](CCc2ccc(C(F)(F)F)c(Cl)c2)NC(=O)CN(C)C(=O)[C@@H]1Cc1ccc(OC)cc1 [PP0134] ([NMeL]I[NMeA][Aze][X16][Sar][hPhe(3-Cl-4-CF3)]P[Ac5c][NMeGly(cPent)][NMeD]-Morpholide; lactam N-11) | C (A compound having a KD ratio of 0.1 or more and less than 3 is denoted as C) | B (a compound having 3 or more and less than 10 is denoted as B) |  |  |  | 
2 | 3.6 nM |  | CCC[C@H]1C(=O)N[C@@H]([C@@H](C)CC)C(=O)N(C2CC2)CC(=O)N(C)[C@H]2C/C=C\CCN(C2=O)[C@@H](Cc2ccc(C(F)(F)F)cc2)C(=O)N(C)CC(=O)N[C@@H](CCc2ccc(C(F)(F)F)c(OC)c2)C(=O)N2C[C@H](OCC)C[C@H]2C(=O)NC2(CC(C)(C)C2)C(=O)N(C)[C@@H](CC2CC2)C(=O)N(C)[C@H](C(=O)N(C)C)CC(=O)N1C [PP2815] |  |  | A (a compound having 10 or more and less than 20 is denoted as A) | A (a compound having 10 or more and less than 20 is denoted as A) |  | 
3 | 0.35 nM |  | CCCN1C(=O)CN(C)C(=O)CN(C)C(=O)[C@H]([C@@H](C)CC)NC(=O)[C@H](CC(C)C)N(C)C(=O)C[C@@H](C(=O)N2CCN(C3COC3)CC2)N(C)C(=O)[C@H](C2CCCC2)N(C)C(=O)C2(CCCC2)NC(=O)[C@@H]2CCCN2C(=O)[C@H](CCc2ccc(C(F)(F)F)c(Cl)c2)NC(=O)CN(C)C(=O)[C@@H]1Cc1ccc(C(F)(F)F)cc1 [PP0175] ([NMeL]I[Sar][Sar][NPrPhe(4-CF3)][Sar][hPhe(3-Cl-4-CF3)]P[Ac5c][NMeGly(cPent)][NMeD]-{Piperazinyl(4-(3-oxetanyl))}; lactam N-11) | B (a compound having 3 or more and less than 10 is denoted as B) | B (a compound having 3 or more and less than 10 is denoted as B) |  |  |  | 
4 | 0.25 nM |  | CCCN1C(=O)CN(C)C(=O)CN(C)C(=O)[C@H]([C@@H](C)CC)NC(=O)[C@H](CC(C)C)N(C)C(=O)C[C@@H](C(=O)N(C)C)NC(=O)[C@H](C2CCCC2)N(C)C(=O)C2(CCC2)NC(=O)[C@@H]2C[C@@H](OCC)CN2C(=O)[C@H](CCc2ccc(C(F)(F)F)c(Cl)c2)NC(=O)CN(C)C(=O)[C@@H]1Cc1ccc(C(F)(F)F)cc1 [PP0360] ([NMeL]I[Sar][Sar][NPrPhe(4-CF3)][Sar][hPhe(3-Cl-4-CF3)][Hyp](Et)[Ac4c][NMeGly(cPent)]D-NMe2; lactam N-11) | B (a compound having 3 or more and less than 10 is denoted as B) | C (A compound having a KD ratio of 0.1 or more and less than 3 is denoted as C) |  |  |  | 
5 |  | 0.81 nM | CCO[C@@H]1C[C@H]2C(=O)NC3(CCC3)C(=O)N(C)[C@@H](C3CCCC3)C(=O)N(C)[C@H](C(=O)N3CCOCC3)CC(=O)N(C)[C@@H](CC(C)C)C(=O)N[C@@H]([C@@H](C)CC)C(=O)N(C)CC(=O)N(C)[C@H]3CCCCCN(C3=O)[C@@H](Cc3ccc(F)c(Cl)c3)C(=O)N(C)CC(=O)N[C@@H](CCc3cc(F)c(C(F)(F)F)c(F)c3)C(=O)N2C1 [PP0919] | B (a compound having 3 or more and less than 10 is denoted as B) | B (a compound having 3 or more and less than 10 is denoted as B) |  |  |  | 
6 |  | 0.69 nM | CCO[C@@H]1C[C@H]2C(=O)NC3(CC(C)(C)C3)C(=O)N(C)[C@@H](C(CC)CC)C(=O)N(C)[C@H](C(=O)N3CCCC3)CC(=O)N(C)[C@@H](C)C(=O)N[C@@H]([C@@H](C)CC)C(=O)N(C)CC(=O)N(C)[C@H]3C/C=C\CCN(C3=O)[C@@H](Cc3ccc(C)cc3)C(=O)N(C)CC(=O)N[C@@H](CCc3ccc(Cl)c(Cl)c3)C(=O)N2C1 [PP2187] | AA (a compound having 20 or more is denoted as AA) | A (a compound having 10 or more and less than 20 is denoted as A) |  |  |  | 
7 | 0.11 nM |  | CC[C@H](C)[C@@H]1NC(=O)[C@H](CC(C)C)N(C)C(=O)C[C@@H](C(=O)N2CCOCC2)N(C)C(=O)[C@H](C2CCCC2)N(C)C(=O)C2(CCCC2)NC(=O)[C@@H]2CCCN2C(=O)[C@H](CCc2cc(F)c(C(F)(F)F)c(F)c2)NC(=O)CN(C)C(=O)[C@H](Cc2ccc(C(F)(F)F)cc2)N2CCCC[C@@H](C2=O)N(C)C(=O)CNC1=O [PP0542] |  |  |  |  | B (a compound having 3 or more and less than 10 is denoted as B) | B (a compound having 3 or more and less than 10 is denoted as B)
8 | 0.11 nM |  | CCCN1C(=O)[C@@H]2CCN2C(=O)[C@H](C)N(C)C(=O)[C@H]([C@@H](C)CC)NC(=O)[C@H](CC(C)C)N(C)C(=O)C[C@@H](C(=O)N2CCOCC2)N(C)C(=O)[C@H](C2CCCC2)N(C)C(=O)C2(CCCC2)NC(=O)[C@@H]2CC3(CC3)CN2C(=O)[C@H](CCc2ccc(C(F)(F)F)c(Cl)c2)NC(=O)CN(C)C(=O)[C@@H]1Cc1ccc(C(F)(F)F)cc1 [PP0282] ([NMeL]I[NMeA][Aze][NPrPhe(4-CF3)][Sar][hPhe(3-Cl-4-CF3)][Pro(4-spirocPr)][Ac5c][NMeGly(cPent)][NMeD]-Morpholide; lactam N-11) | C (A compound having a KD ratio of 0.1 or more and less than 3 is denoted as C) | C (A compound having a KD ratio of 0.1 or more and less than 3 is denoted as C) |  |  |  | 
9 | 0.79 nM |  | CCCN1C(=O)CN(C)C(=O)CN(CC)C(=O)[C@H]([C@@H](C)CC)NC(=O)[C@H](CC(C)C)N(C)C(=O)C[C@@H](C(=O)N(C)C)NC(=O)[C@H](C2CCCC2)N(C)C(=O)C2(CCC2)NC(=O)[C@@H]2C[C@@H](OCC)CN2C(=O)[C@H](CCc2ccc(C(F)(F)F)c(Cl)c2)NC(=O)CN(C)C(=O)[C@@H]1Cc1ccc(C(F)(F)F)cc1 [PP0372] ([NMeL]I[NEtG][Sar][NPrPhe(4-CF3)][Sar][hPhe(3-Cl-4-CF3)][Hyp](Et)[Ac4c][NMeGly(cPent)]D-NMe2; lactam N-11) | B (a compound having 3 or more and less than 10 is denoted as B) | B (a compound having 3 or more and less than 10 is denoted as B) |  |  |  | 
10 | 0.13 nM |  | CCCN1C(=O)CN(C)C(=O)CN(C)C(=O)[C@H]([C@@H](C)CC)NC(=O)[C@H](CC(C)C)N(C)C(=O)C[C@@H](C(=O)N2CCOCC2)N(C)C(=O)[C@H](C2CCCC2)N(C)C(=O)C2(CCC2)NC(=O)[C@@H]2CCCN2C(=O)[C@H](CCc2ccc(C(F)(F)F)c(Cl)c2)NC(=O)CN(C)C(=O)[C@@H]1Cc1ccc(C(F)(F)F)cc1 [PP0197] ([NMeL]I[Sar][Sar][NPrPhe(4-CF3)][Sar][hPhe(3-Cl-4-CF3)]P[Ac4c][NMeGly(cPent)][NMeD]-Morpholide; lactam N-11) | B (a compound having 3 or more and less than 10 is denoted as B) | C (A compound having a KD ratio of 0.1 or more and less than 3 is denoted as C) |  |  |  | 
11 |  | 0.36 nM | CCO[C@@H]1C[C@H]2C(=O)NC3(CC(C)(C)C3)C(=O)N(C)[C@@H](C(CC)CC)C(=O)N(C)[C@H](C(=O)N(C)C)CC(=O)N(C)[C@@H](CC)C(=O)N[C@@H]([C@@H](C)CC)C(=O)N(C)CC(=O)N(C)[C@H]3C/C=C\CCN(C3=O)[C@@H](Cc3ccc(C)cc3)C(=O)N(C)CC(=O)N[C@@H](CCc3ccc(C(F)(F)F)c(Cl)c3)C(=O)N2C1 [PP2154] | A (a compound having 10 or more and less than 20 is denoted as A) | A (a compound having 10 or more and less than 20 is denoted as A) |  |  |  | 
12 | 0.82 nM |  | CCCN1C(=O)[C@@H]2CCN2C(=O)CN(C)C(=O)[C@H]([C@@H](C)CC)NC(=O)[C@H](CC(C)C)N(C)C(=O)C[C@@H](C(=O)N2CCOCC2)NC(=O)[C@H](C2CCCC2)N(C)C(=O)C2(CCC2)NC(=O)[C@@H]2CC(F)(F)CN2C(=O)[C@H](CCc2ccc(C(F)(F)F)c(Cl)c2)NC(=O)CN(C)C(=O)[C@@H]1Cc1ccc(C(F)(F)F)cc1 [PP0352] ([NMeL]I[Sar][Aze][NPrPhe(4-CF3)][Sar][hPhe(3-Cl-4-CF3)][Pro(4,4-F2)][Ac4c][NMeGly(cPent)]D-Morpholide; lactam N-11) | C (A compound having a KD ratio of 0.1 or more and less than 3 is denoted as C) | B (a compound having 3 or more and less than 10 is denoted as B) |  |  |  | 
13 |  | 0.11 nM | CCCN(C)C(=O)[C@@H]1CC(=O)N(C)[C@@H](C2CC2)C(=O)N[C@@H]([C@@H](C)CC)C(=O)N(C)CC(=O)N(C)[C@H]2C/C=C\CCN(C2=O)[C@@H](Cc2ccc(C(F)(F)F)cc2)C(=O)N(C)CC(=O)N[C@@H](CCc2ccc(C(F)(F)F)c(OC)c2)C(=O)N2C[C@@H](C)C[C@H]2C(=O)NC2(CCC2)C(=O)N(C)[C@@H](C2CCCC2)C(=O)N1C [PP2070] | A (a compound having 10 or more and less than 20 is denoted as A) | A (a compound having 10 or more and less than 20 is denoted as A) |  |  |  | 
